The target in one series is Hm3 (Homo sapiens, UniProt P20309). Kind of series: Binding to Hm3 receptor (mean KD, dissociation half-life).
Another series concerns healthy horses. Kind of series: Phase III: ECG measurements for 48 h after single inhalation. Conditions: single 800 μg inhalation, aqueous formulation, two healthy horses. Type of series: in vivo, horse. The method, then:
A single administration of 800 μg LAMA 1 (8 actuations in aqueous formulation) is performed per inhalation to two healthy horses in phase III. Subsequently, ECG measurements are done for 48 h.

Series [1] relates to RAO horses. Kind of series: Phase II: cross-over, blinded mouldy hay challenge study, 7 days treatment. Type of series: in vivo, horse. Conditions: for EL values over time / ΔPL values over time: Days 4 and 8 compared to Day 1; for RL values over time: clenbuterol group and 800 μg LAMA 1 group. The protocol:
LAMA 1 is investigated in a cross-over, blinded mouldy hay challenge study. 8 RAO horses are examined in the study, which is divided into an acclimation and a treatment phase. Placebo for LAMA 1 is administered once daily per inhalation via the Equine Inhaler device to all horses for 1 week in the acclimation period. LAMA 1 and clenbuterol are administered to the horses in a cross-over design in the treatment phase. The horses are challenged by exposure to mouldy hay throughout the acclimation and treatment phases. LAMA 1 is administered with the doses of 200 μg (2 actuations)/400 μg (4 actuations)/800 μg (8 actuations)/horse (ex-RESPIMAT®) once daily for 7 days per inhalation via the Equine Inhaler device. Nozzle A and a commercially available RESPIMAT® is used in the study. Clenbuterol is administered with a dose of 0.8 μg/kg per os, twice daily for 7 days. Lung function variables (change in transpulmonary pressure (ΔPL), lung resistance (RL) and lung elastance (EL)), breathing effort score, Borborygmi score, blood gas analysis are examined during the study.

The nature of series [2]: Kallos-Pagel Model, effects vs. tiotropium. Type of series: in vivo.
For series [3], the system named is RAO horses. Kind of series: Phase I and IV: mouldy hay challenge, single inhaled administration, lung function for 24 h. Type of series: in vivo, horse. The method, then: LAMA 1 is investigated in two RAO horses at different phases or periods as part of a mouldy hay challenge study. The horses are challenged every day by exposure to mouldy hay. LAMA 1 is administered via the Equine Inhaler device at different doses or formulations. Lung function parameters (change in transpulmonary pressure (ΔPL), lung resistance (RL) and lung elastance (EL)) are measured for 24 h. A single administration of 800 μg LAMA 1 (8 actuations in aqueous formulation) is performed per inhalation to two RAO horses (ID numbers: 312 and 91) in phase I. Two RAO horses are treated with LAMA 1 in phase IV (ID numbers: 40 and 91), which can be divided into three periods. 2000 μg LAMA 1 (20 actuations in aqueous formulation) is administered per inhalation in period 1. 2000 μg LAMA 1 ([…] in ethanolic formulation) is administered per inhalation in period 2. 2000 μg LAMA 1 (20 actuations in ethanolic formulation) is administered per inhalation in period 3.

[4] abbreviates: 800 μg group, Day 7 compared to Day 0.
The mark [5] stands for this setting: day 4, all LAMA 1 groups (200, 400, 800 μg).

Chain of Hm3 (P20309 whole entry): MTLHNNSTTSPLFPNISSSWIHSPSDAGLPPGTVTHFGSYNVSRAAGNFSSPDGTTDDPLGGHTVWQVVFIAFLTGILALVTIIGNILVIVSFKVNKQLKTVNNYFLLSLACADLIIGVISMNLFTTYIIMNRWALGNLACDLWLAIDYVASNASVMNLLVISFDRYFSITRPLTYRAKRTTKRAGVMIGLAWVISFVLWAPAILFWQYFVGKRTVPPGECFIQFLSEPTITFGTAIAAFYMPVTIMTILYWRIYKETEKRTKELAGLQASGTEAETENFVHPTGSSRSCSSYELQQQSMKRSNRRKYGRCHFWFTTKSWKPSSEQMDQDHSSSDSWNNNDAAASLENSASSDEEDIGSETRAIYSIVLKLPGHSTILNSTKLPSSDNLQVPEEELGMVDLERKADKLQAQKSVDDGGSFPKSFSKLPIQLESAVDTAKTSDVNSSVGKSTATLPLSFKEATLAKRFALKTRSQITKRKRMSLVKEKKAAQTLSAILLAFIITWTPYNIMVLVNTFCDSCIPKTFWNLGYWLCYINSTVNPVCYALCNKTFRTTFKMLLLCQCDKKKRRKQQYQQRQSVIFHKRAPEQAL

In turn, `CC(C(=O)O[C@H]1CC2C3O[C@@H]3[C@H](C1)[N+]2(C)C)(c1ccccc1)c1ccccc1` (stereo partly drawn) [LAMA 1, (1α,2β,4β,5α,7β)-3-Oxa-9-azoniatricyclo [3.3.1.0^2.4] nonane, 9,9-dimethyl-7-(1-oxo-2,2-diphenylpropoxy)-bromide] gave a Kd on Hm3 of 0.4 nM. Moreover, in the series on healthy horses, the “ECG: abnormal observation” value was “Only one observation is classified as either a first-degree heart block with aberrant intraventricular repolarization, or an artifact”; the “ECG: arrhythmias” value is “Physiological arrhythmias are noted in both horses before and following the administration”. For the same compound, in the series with RAO horses [1] (setting [4]), the “pH in arterial blood” value is recorded as “increases” and the “paCO2 in arterial blood” value is on record as “reduces significantly”. In addition, in the series on RAO horses [1], the “EL values over time” value is listed as “None of the treatments (LAMA 1 or clenbuterol) alters significantly”, the “ΔPL values over time” value is given as “None of the treatments (LAMA 1 or clenbuterol) alters significantly” and the “RL values over time” value is listed as “significantly reduced”. In the series with RAO horses [1] (LAMA 1 once daily for one week, clenbuterol twice daily for one week), the “Improvement in lung function after one week, compared with clenbuterol” value is listed as “comparable to the significant improvement in lung function after the twice daily administration of clenbuterol”. In addition, in the series with RAO horses [1] (day 4, 200 and 400 μg LAMA 1), the “Change in EL 30 min after administration” value was “statistically significant” and the “Change in ΔPL 30 min after administration” value is given as “statistically significant”. Further, in the series on RAO horses [1] (setting [5]), the “EL 30 min after administration vs pre-treatment” value is “decrease”, the “RL 30 min after administration vs pre-treatment” value is “decrease” and the “ΔPL 30 min after administration vs pre-treatment” value is “decrease”. In addition, in series [2] (acute and chronic), the “Effects in the Kallos-Pagel Model: protection” value worked out at 24 h. The “Effects in the Kallos-Pagel Model vs. tiotropium: lower efficacy (chronic)” value in series [2] (chronic, vs. tiotropium) was determined as 10 fold. The “Lung function variables at 24 h after single administration” value in the series on RAO horses [3] (24 h, compared with pre-treatment values) is listed as “below or reach the pre-treatment values”. Also, in the series with RAO horses [3] (depending on lung function parameter, dose or formulation), the “Time until which lung function values continue to drop” value fell in the range of 2 to 8 h. Also, the “Start of decrease in lung function variables (ΔPL, RL, EL) after administration” value in the series on RAO horses [3] (single inhalation of 800 μg or 2000 μg, aqueous or ethanolic formulation) is 5 min.

Consider `CC(C)(C)NCC(O)c1cc(Cl)c(N)c(Cl)c1` (centres unmarked) [clenbuterol, reference compound], for which, in the series on RAO horses [1], the “EL values over time” value is reported as “None of the treatments (LAMA 1 or clenbuterol) alters significantly”, the “ΔPL values over time” value is given as “None of the treatments (LAMA 1 or clenbuterol) alters significantly” and the “RL values over time” value is listed as “significantly reduced”. Further, the Breathing effort score result in the series on RAO horses [1] (study day 6, clenbuterol 0.8 μg/kg per os twice daily compared with 2 or 4 actuations of LAMA 1) is recorded as “significantly smaller breathing effort scores”.

These data come from patent publication US10682345B2, “Muscarinic antagonists and combinations thereof for the treatment of airway disease in horses” (Boehringer Ingelheim Vetmedica GmbH, priority 2014, dated 2020).
